Test results from patent US20250017940A1, “SELECTIVE PEPTIDOMIMETIC MODULATORS OF CAV2.2 (N-TYPE) VOLTAGE-GATED CALCIUM CHANNELS AND USES THEREOF” (New York University, priority 2023, published 2025).

Key:
[1] = system: total Ca2+ currents; experiment: Whole-cell patch-clamp, total Ca2+ currents in small-to-medium DRG neurons; format: cell-based, rat; conditions: 20 μM overnight
Protocol: (§1) Recordings were obtained from acutely dissociated DRG neurons as described earlier (Bellampalli et al., 2019). Patch-clamp recordings were performed at room temperature (22-24° C.). Currents were recorded using an EPC 10 Amplifier-HEKA (HEKA Elektronik, Ludwigshafen, Germany) linked to a computer with Patchmaster software. DRG neurons were incubated overnight (˜16-24 hours) with 20 μM of CBD3063.
(§2) For total calcium current (ICa^2+) recordings, the external solution consisted of the following (in mM): 110 N-methyl-D-glucamine, 10 BaCl2, 30 TEA-Cl, 10 HEPES, 10 glucose, and 0.001 TTX (pH 7.29 adjusted with TEA-OH, and mOsm/L=310). Patch pipettes were filled with an internal solution containing (in mM): 150 CsCl2, 10 HEPES, 5 Mg-ATP, and 5 BAPTA, (pH 7.2 adjusted with CsOH, and mOsm/L-305). Peak Ca^2+ current was acquired by applying 200-millisecond voltage steps from −70 to +60 mV in 10-mV increments from a holding potential of −90 mV to obtain the current-voltage (I-V) relation. To measure the different subtypes of Ca^2+ channels, DRGs were treated with a Cav inhibitor cocktail omitting the inhibitor specific to the subtype being tested (e.g., to measure Cav2.2 currents, ω-conotoxin GVIA is omitted): Nifedipine (10 μM, L-type), ω-Conotoxin-GVIA (500 nM, […]) (Feng, et al., 2001), SNX482 (200 nM, R-type) (Newcomb et al., 1998), ω-agatoxin (200 nM, P/Q-type) (Mintz et al., 1992), TTA-P2 (1 μM, T-type) (Choe et al., 2011).
(§3) Normalization of currents to each cell's capacitance (pF) was performed to allow for collection of current density data. For I-V curves, functions were fitted to data using a non-linear least squares analysis. I-V curves were fitted using double Boltzmann functions:
(§4) where x is the pre-pulse potential, V1/2 is the mid-point potential, and k is the corresponding slope factor for single Boltzmann functions. Double Boltzmann fits were used to describe the shape of the curve, not to imply the existence of separate channel populations. Numbers 1 and 2 simply indicate first and second mid-points; a along with g are fitting parameters.
(§5) Activation curves were obtained from the I-V curves by dividing the peak current at each depolarizing step by the driving force according to the equation: G=I/(Vmem-Erev), where I is the peak current, Vmem is the membrane potential and Erev is the reversal potential. The conductance (G) was normalized against the maximum conductance (Gmax). For total and the different subtypes of Ca^2+ currents, steady-state inactivation (SSI) curves were obtained by applying an H-infinity protocol that consisted of 1.5-seconds conditioning pre-pulses from −100 to +30 mV in 10-mV increments followed by a 20-millisecond test pulse to +10 mV. For Na^+ currents, SSI curves were obtained by applying an H-infinity protocol that consisted of 1-second conditioning pre-pulses from −120 to +10 mV in 10-mV increments followed by a 200-millisecond test pulse to +10 mV. Inactivation curves were obtained by dividing the peak current recorded at the test pulse by the maximum current (Imax). Activation and SSI curves were fitted with the Boltzmann equation.

[2] = molecular target: T1, Cav2.1 (P/Q-type) calcium channels (Rattus norvegicus, UniProt P54282); experiment: Whole-cell patch-clamp, isolated P/Q-type Ca2+ currents in DRG neurons; format: cell-based
T1 construct: Recordings were obtained from acutely dissociated DRG neurons; endogenous in cells; host or cells: acutely dissociated rat DRG neurons
T1 sequence (P54282 whole entry): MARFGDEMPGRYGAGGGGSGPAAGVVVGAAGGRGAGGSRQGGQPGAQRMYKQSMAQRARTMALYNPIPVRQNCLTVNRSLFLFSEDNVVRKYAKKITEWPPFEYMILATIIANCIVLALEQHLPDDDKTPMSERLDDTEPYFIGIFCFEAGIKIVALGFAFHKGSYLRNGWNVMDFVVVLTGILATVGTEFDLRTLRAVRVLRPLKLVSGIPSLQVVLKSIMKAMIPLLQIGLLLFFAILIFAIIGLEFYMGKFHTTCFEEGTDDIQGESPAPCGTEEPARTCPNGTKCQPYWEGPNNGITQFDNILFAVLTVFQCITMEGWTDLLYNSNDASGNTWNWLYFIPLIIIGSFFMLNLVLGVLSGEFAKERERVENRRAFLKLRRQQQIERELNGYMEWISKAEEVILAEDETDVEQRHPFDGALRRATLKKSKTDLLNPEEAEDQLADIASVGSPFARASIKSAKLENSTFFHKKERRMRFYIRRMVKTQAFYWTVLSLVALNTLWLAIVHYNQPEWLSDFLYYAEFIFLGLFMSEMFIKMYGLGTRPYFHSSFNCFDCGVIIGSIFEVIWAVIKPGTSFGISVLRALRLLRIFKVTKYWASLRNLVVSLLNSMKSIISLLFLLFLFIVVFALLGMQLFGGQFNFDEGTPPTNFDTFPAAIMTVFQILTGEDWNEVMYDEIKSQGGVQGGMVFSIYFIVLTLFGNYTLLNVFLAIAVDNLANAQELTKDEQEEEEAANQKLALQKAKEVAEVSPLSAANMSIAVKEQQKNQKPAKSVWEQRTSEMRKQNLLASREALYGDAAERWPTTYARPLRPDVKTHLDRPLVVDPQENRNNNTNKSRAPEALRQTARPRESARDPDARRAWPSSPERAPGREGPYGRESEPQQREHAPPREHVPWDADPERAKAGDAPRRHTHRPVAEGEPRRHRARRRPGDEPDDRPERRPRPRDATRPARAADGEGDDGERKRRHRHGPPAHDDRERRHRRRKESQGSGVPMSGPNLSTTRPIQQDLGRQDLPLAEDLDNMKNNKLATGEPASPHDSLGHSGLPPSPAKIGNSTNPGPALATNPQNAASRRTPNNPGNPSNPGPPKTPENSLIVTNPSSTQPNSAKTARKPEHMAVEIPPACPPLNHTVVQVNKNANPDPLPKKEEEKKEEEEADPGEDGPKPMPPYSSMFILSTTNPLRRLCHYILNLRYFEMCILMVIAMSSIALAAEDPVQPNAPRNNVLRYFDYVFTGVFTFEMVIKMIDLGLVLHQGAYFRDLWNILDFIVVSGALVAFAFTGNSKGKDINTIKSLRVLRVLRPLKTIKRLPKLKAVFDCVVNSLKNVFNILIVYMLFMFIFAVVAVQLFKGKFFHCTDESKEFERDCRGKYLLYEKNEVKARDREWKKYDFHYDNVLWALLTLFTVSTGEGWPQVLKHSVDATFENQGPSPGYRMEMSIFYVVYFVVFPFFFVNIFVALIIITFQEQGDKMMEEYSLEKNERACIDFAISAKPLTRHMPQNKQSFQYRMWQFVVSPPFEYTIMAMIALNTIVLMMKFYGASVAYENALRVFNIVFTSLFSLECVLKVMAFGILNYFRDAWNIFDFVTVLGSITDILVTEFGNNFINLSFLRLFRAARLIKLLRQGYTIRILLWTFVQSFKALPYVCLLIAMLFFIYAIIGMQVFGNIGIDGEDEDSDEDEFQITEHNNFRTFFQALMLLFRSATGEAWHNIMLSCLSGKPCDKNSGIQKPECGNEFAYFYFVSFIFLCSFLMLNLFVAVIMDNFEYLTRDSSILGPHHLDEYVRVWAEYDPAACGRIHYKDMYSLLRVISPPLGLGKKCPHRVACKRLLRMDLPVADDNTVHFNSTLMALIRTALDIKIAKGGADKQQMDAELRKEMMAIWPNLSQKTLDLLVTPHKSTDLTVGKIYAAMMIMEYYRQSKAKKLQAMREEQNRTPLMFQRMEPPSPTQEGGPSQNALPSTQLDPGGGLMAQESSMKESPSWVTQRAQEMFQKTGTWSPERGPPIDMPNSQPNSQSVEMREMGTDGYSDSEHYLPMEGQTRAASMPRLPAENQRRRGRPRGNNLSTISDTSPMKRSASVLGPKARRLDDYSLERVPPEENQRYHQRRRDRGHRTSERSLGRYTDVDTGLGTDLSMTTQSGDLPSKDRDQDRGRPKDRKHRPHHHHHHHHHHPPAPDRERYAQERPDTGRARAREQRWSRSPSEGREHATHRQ
T1 sequence (P54290 25-1091 partner): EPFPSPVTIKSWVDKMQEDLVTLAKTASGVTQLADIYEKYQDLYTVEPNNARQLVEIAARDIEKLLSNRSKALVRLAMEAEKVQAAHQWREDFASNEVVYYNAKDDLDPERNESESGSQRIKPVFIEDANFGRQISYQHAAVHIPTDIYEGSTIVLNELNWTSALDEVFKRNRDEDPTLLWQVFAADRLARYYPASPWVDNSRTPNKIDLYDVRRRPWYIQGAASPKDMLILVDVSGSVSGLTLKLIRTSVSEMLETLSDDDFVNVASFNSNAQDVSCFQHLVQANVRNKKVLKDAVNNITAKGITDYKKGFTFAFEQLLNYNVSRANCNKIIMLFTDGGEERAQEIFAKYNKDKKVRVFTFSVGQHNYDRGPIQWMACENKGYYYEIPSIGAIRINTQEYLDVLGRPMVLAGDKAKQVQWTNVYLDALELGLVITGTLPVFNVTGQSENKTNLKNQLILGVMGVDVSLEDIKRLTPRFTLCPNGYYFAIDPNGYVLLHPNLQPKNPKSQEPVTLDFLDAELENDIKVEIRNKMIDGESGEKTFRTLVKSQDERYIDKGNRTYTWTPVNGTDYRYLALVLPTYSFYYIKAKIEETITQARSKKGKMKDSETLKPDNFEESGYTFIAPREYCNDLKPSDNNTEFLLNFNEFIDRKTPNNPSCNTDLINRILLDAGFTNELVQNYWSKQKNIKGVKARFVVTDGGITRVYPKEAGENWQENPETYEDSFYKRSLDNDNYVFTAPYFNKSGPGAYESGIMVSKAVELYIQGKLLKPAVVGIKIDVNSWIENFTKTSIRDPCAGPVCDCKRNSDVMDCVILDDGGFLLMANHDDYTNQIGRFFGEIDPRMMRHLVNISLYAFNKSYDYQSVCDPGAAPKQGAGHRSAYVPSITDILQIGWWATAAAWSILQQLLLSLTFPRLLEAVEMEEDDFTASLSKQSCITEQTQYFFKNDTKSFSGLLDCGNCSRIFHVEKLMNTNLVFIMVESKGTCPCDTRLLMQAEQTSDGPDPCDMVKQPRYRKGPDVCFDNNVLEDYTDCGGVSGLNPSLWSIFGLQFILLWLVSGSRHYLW
T1 sequence (P54287 whole entry partner): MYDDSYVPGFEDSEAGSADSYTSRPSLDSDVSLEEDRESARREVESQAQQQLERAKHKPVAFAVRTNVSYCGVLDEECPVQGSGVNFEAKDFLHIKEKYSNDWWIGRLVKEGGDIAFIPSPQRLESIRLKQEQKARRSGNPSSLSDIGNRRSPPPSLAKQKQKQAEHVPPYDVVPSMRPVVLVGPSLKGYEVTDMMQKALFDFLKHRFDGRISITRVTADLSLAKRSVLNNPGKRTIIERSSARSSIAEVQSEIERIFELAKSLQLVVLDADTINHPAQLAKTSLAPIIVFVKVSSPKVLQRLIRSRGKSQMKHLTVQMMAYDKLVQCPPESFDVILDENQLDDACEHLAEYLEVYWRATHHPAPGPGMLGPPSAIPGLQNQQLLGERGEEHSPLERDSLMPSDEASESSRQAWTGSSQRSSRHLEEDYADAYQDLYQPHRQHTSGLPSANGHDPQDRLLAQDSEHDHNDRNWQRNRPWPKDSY
Protocol: as §1, §2, §3, §4, §5

[3] = system: rat DRG sensory neurons; experiment: Whole-cell current-clamp, excitability of DRG sensory neurons; format: cell-based; design: rheobase: unit not given here
Protocol: Cav2.2 channels have critical roles in controlling the excitability of DRG neurons, according to earlier studies (Yang et al., 2018). Since Cav2.2 populations are affected by CBD3063, the ability of CBD3063 to alter the excitability of DRG sensory neurons was investigated (FIGS. 7A-D). Action potentials (AP) were elicited in rat sensory neurons during whole cell current-clamp tests in response to current injections from 0-120 pA after overnight incubation with 0.1% DMSO or 20 μM CBD3063.

[4] = system: rat model of spared nerve injury (SNI); experiment: Spared nerve injury (SNI) model, mechanical allodynia (von Frey paw withdrawal threshold); format: in vivo
Protocol: Rats were anesthetized with ketamine/xylazine 80/12 mg/kg intraperitoneally (i.p.) (Sigma-Aldrich, St. Louis, MO), and their head was placed in a stereotaxic frame. The cisterna magna was exposed and incised. As previously reported, an 8-cm catheter (PE-10; Stoelting, Wood Dale, IL) was implanted, terminating in the lumbar region of the spinal cord (Yaksh & Rudy, 1976). Catheters were sutured (using 3-0 silk sutures) into the deep muscle and externalized at the back of the neck. Autoclips were used to close the skin, and other surgeries were performed after a 5- to 7-day recovery period.
The neuropathic pain model induced by spared nerve injury (SNI) in rats was performed as previously described. Adult male rats (250 g, Envigo, Placentia, CA) were anesthetized with isoflurane (5% induction, 2% maintenance in 2 L/min air), and skin on the lateral surface of the left hind thigh was incised. Then, the biceps femoris muscle was dissected to expose the three terminal branches of the sciatic nerve. The common peroneal and tibial branches were tightly ligated with 4-0 silk and axotomized 2.0 mm distal to the ligation. Closure of the incision was made in two layers. The muscle was sutured once with 5-0 absorbable suture; skin was autoclipped. Animals were allowed to recover for 7 days before any testing. […]
Mechanical allodynia was assessed by measuring rats' paw withdrawal threshold in response to probing with a series of fine calibrated filaments (von Frey, Stoelting, Wood Dale, IL). Rats were placed in suspended plastic cages with wire mesh floor, and each von Frey filament was applied perpendicularly to the plantar surface of the paw. The “up-and-down” method (sequential increase and decrease of the stimulus strength) was used to determine the withdrawal threshold Dixon's nonparametric method was used for data analysis, as described by Chaplan et al., 1994. Data were expressed as the mean withdrawal threshold.

[5] = 20 μM overnight, mean ± SEM (n cells)
[6] = single intrathecal 0.3 μg/kg, 7 days after SNI, male rats

CC(=O)N[C@@H]1CCCN(C(=O)NCCCNc2ccccn2)C1 [CBD3063, (3R)-3-acetamido-N-[3-(pyridin-2-ylamino)propyl]piperidine-1-carboxamide] was tested, and the “peak total calcium current density” value ([1]; +10 mV (DMSO: −93.23±10.40)) was −49.84±6.17 pA/pF, the “reduction in Ca2+ currents at peak current density” value ([1]; +10 mV, vs 0.1% DMSO) was ~46.54% and the “Total Ca2+ currents, activation V1/2” value ([1]; mean ± SEM (n cells)) was 0.971 ± 2.338 (16) mV. The “Total Ca2+ currents, activation k (slope factor)” value ([1]; mean ± SEM (n cells)) was 11.004 ± 2.181 (16), the “Total Ca2+ currents, inactivation V1/2” value ([1]; mean ± SEM (n cells)) was −20.944 ± 3.182 (16) mV and the “Total Ca2+ currents, inactivation k (slope factor)” value ([1]; mean ± SEM (n cells)) was −14.132 ± 2.880 (16). For the same molecule, the “normalized peak total ICa2+ density” value ([1]; normalized to 0.1% DMSO control (1.00±0.06)) was 0.51±0.04 ratio to DMSO control, the “effect on Ca2+ influx through Cav2.1 (P/Q-type) channels (current density-voltage curve, peak current density)” value ([2]; 20 μM overnight vs 0.1% DMSO) was “does not alter” and the “P/Q-type Ca2+ currents, activation V1/2” value [2, 5] was −3.265 ± 0.824 (7) mV. For the same molecule, the “P/Q-type Ca2+ currents, activation k (slope factor)” value [2, 5] was 4.186 ± 0.663 (7), the “P/Q-type Ca2+ currents, inactivation V1/2” value [2, 5] was −18.667 ± 1.688 (7) mV and the “P/Q-type Ca2+ currents, inactivation k (slope factor)” value [2, 5] was −9.396 ± 1.470 (7). For the same molecule, the rheobase ([3]; 20 μM overnight (DMSO: 15.00±3.416)) was 48.33±9.098, the resting membrane potential ([3]; 20 μM overnight (DMSO: −44.50±1.478)) was −50.00±1.915 mV and the “number of evoked action potentials” value ([3]; 20 μM overnight, current injection steps 10 to 120 pA) was “reduced the number of evoked APs”. The “tolerance (loss of antinociception)” value ([4]; repeated i.t. 0.3 μg/kg once a day for 14 days) was “without any tolerance”, the “duration of reversal of mechanical allodynia with repeated intrathecal dosage” value ([4]; repeated i.t. 0.3 μg/kg, rats with chronic neuropathic pain) was > 14 days and the “area under the curve of paw withdrawal threshold” value ([4]; repeated i.t. injection 0.3 μg/kg once a day for 14 days (DMSO: 3.37±0.86)) was 47.26±8.22. The “area under the curve of paw withdrawal threshold” value ([4]; single i.t. injection 0.3 μg/kg, 0.5 to 36 hours (DMSO: 7.650±0.84)) was 57.05±3.84, the “duration of reversal of mechanical allodynia” value [4, 6] was “up to 36 hours” and the “start of reversal of mechanical allodynia post-injection” value [4, 6] was 60 min.
